Like-named read-outs stand apart in the source and are kept apart here.
Key:
[1] = In vitro skin penetration and metabolism, fresh viable pig skin on static Franz cells
From the text: Fresh viable pig skin (without hot steam treatment, by-product from meat industry) was obtained from a local, commercial butcher (Hammoor, Germany). The back skin was from female pigs (bred from “Dänische Landrasse” (female) and Pietrain (male) pigs, ~130 days old, 100 kg body weight). Pig skin samples were gently dry-shaved and washed with water before use. For the experiment, 2 replicate discs from each of 3 donors were used.
Skin of full-thickness was mounted on static Franz cells with a 4.9 cm² application area. The receptor compartment of the diffusion cell was filled with approx. 5 ml RF (1% BSA, 0.9% NaCl, 0.05% gentamycin sulfate in water), above a magnetic stirrer set to low rotation. […] The experiment was conducted using non-occluded conditions.
The dermal absorption was calculated as the total amount present within epidermis (without the amount in the total SC strips), dermis and RF.

thyroid pathway [2] = tested on: thyroid pathway; set-up: method as in ToxCast database; settings: ref ToxCast database; cited from earlier work
[3] = set-up: method as in ToxCast database; settings: ref ToxCast database; cited from earlier work
Aromatase = tested on: Aromatase; set-up: method as in ToxCast database; settings: ref ToxCast database; cited from earlier work
thyroid pathway [4] = tested on: thyroid pathway; set-up: method as in ToxCast database; settings: ref ToxCast database; cited from earlier work; remark: listed apart in the source
MCF-7 cells = type: cell-based; settings: 1,000 µM SA or 1 μM trichostatin A, analysis Method 1

SMILES: O=Cc1ccccc1 [Benzaldehyde, benzaldehyde]
- Total recovery ([1]; 24 h after application of 0.5% BSal in formulation, SA corrected by the amount of SA present in the formulation): < LOQ*

SMILES: O=C(O)CNC(=O)c1ccccc1 [Hippuric acid, hippuric acid]
- Thyroid pathway Reporter protein Agonist: Call (thyroid pathway [2]): Negative
- Result in all 259 ToxCast assays [3]: SA: alerts for developmental toxicity, reproductive toxicity, nephrotoxicity, hepatotoxicity, Hippuric acid: negative in all 259 ToxCast assays
- Receptor fluid [1]: < LOQ*
- Surface [1]: < LOQ*
- Steroidogenesis Aromatase: Call (Aromatase): Negative
- Thyroid pathway Reporter protein Antagonist: Call (thyroid pathway [4]): Negative

SMILES: CC(/C=C/C(=O)NO)=C\[C@@H](C)C(=O)c1ccc(N(C)C)cc1 [trichostatin A, Trichostatin A]
- Number of genes altered by > 1.5-fold or < -1.5-fold (MCF-7 cells; 6 h): ~10,000 genes
- Number of genes altered by > 1.5-fold or < -1.5-fold (MCF-7 cells; 24 h): ~10,000 genes

Source: article PMC10955127 (Frontiers in Pharmacology, 2024)
